IC50 data for 61 molecules are collected here from patent US20250304537A1 (Repare Therapeutics Inc., priority 2022, published 2025).

Molecules are shown by their SMILES.

This test deals with PKMYT1 (CDK1 pThr14) in FUOV1 cells. Kind of test: PKMYT1 cell-based activity assay, CDK1 pThr14 AlphaLISA in FUOV1 cells. The settings on record: 2 h, 2 h compound incubation, read-out: FUOV-1 CDK1 pThr14 IC50. The procedure, abridged: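 FUOV1 cells were treated with PKMYT1 inhibitor for 2 h at 37 °C, then lysed. CDK1 pThr14 was measured by AlphaLISA, pairing an anti-pThr14 antibody with an anti-total CDK1 antibody (5 nM each). Signal read at 680/615 nm and used to derive IC50.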
A general note: In Alpha technology, singlet oxygen from a donor bead excites a nearby acceptor bead.
`Cc1ccc2[nH]ncc2c1-c1nc(-c2ccc(F)cc2Nc2cncc(F)c2)nc(C(N)=O)c1N` [Compound 665]: the IC50 was 41 nM.
Consider `Cc1cncc(Nc2cc(F)ccc2-c2nc(C(N)=O)c(N)c(-c3c(C)ccc4[nH]ncc34)n2)c1` [Compound 666], for which the IC50 worked out at 38 nM.
Consider `Cc1ccc2[nH]ncc2c1-c1nc(-c2cccnc2NC[C@H]2CCCOC2)nc(C(N)=O)c1N` [Compound 667], for which the half-maximal inhibitory concentration (IC50) was found to be 42 nM.
With `Cc1ccc2[nH]ncc2c1-c1cc2c(oc3ccc(N[C@H]4CCOC4)nc32)c(C(N)=O)c1N` [Compound 668] the figure was 94 nM; with `Cc1ccc2[nH]ncc2c1-c1nc(-c2cnncc2NCC(F)(F)F)nc(C(N)=O)c1N` [Compound 669], more than 10000 nM; with `Cc1ccc2[nH]ncc2c1-c1nc(-c2cccnc2NC[C@@H]2CCCO2)nc(C(N)=O)c1N` [Compound 670], 198 nM.
On to `Cc1cccnc1Nc1cc(F)ccc1-c1nc(C(N)=O)c(N)c(-c2c(C)ccc3[nH]ncc23)n1` [Compound 671], for which the IC50 is 164 nM.
With `Cc1cccnc1Nc1ncc(F)cc1-c1nc(C(N)=O)c(N)c(-c2c(C)ccc3[nH]ncc23)n1` [Compound 672] the figure was 33 nM.
With `Cc1ccc2[nH]ncc2c1-c1nc(-c2ccc(F)cc2Nc2cncc(C#N)c2)nc(C(N)=O)c1N` [Compound 673] the figure was 1710 nM.
With `Cc1ccc2[nH]ncc2c1-c1nc(-c2ccc(F)cc2Nc2cccnc2C#N)nc(C(N)=O)c1N` [Compound 674] the figure was 27 nM.
Regarding `Cc1ccc2[nH]ncc2c1-c1nc(-c2cccnc2NC2CC(F)(F)C2)nc(C(N)=O)c1N` [Compound 675], the half-maximal inhibitory concentration (IC50) came out at 53 nM.
With `Cc1ccc2[nH]ncc2c1-c1nc(-c2cccnc2NCC2COC2)nc(C(N)=O)c1N` [Compound 676] the figure was more than 10000 nM; with `Cc1cc(F)c2[nH]ncc2c1-c1nc(-c2cc(F)ccc2Nc2ncc(F)cn2)nc(C(N)=O)c1N` [Compound 677], 451 nM.
As for `Cc1ccc2[nH]ncc2c1-c1nc(-c2cc(F)cnc2NC2CC(F)(F)C2)nc(C(N)=O)c1N` [Compound 678], the half-maximal inhibitory concentration (IC50) amounted to 31 nM.
As for `Cc1ccc2[nH]ncc2c1-c1nc(-c2cc(F)cnc2NC(C)C)nc(C(N)=O)c1N` [Compound 679], the figure is 13 nM.
Take `Cc1ccc2[nH]ncc2c1-c1nc(-c2cc(F)cnc2NC2CC2)nc(C(N)=O)c1N` [Compound 680]: the IC50 came to 14 nM.
As to `Cc1ccc2[nH]ncc2c1-c1nc(-c2cccnc2NC2CCCC2)nc(C(N)=O)c1N` [Compound 681], the IC50 was 11 nM.
With `Cc1ccc2[nH]ncc2c1-c1nc(-c2cccnc2NCC(C)(C)O)nc(C(N)=O)c1N` [Compound 682] the figure was 83 nM; with `Cc1ccc2[nH]ncc2c1-c1nc(-c2cc(F)cnc2NCC(C)(C)O)nc(C(N)=O)c1N` [Compound 683], 65 nM.
Turning to `[2H]C([2H])([2H])c1ccc2[nH]ncc2c1-c1nc(-c2cc(F)ccc2Nc2ncc(F)cn2)nc(C(N)=O)c1N` [Compound 684], the half-maximal inhibitory concentration (IC50) came to 122 nM.
On to `Cc1ccc2[nH]ncc2c1-c1nc(-c2cc(F)cnc2N[C@@H]2CCOC2)nc(C(N)=O)c1N` [Compound 685], for which the IC50 was determined as 12 nM.
With `Cc1ccc2[nH]ncc2c1-c1nc(-c2cc(F)cnc2NC2CCOCC2)nc(C(N)=O)c1N` [Compound 686], the half-maximal inhibitory concentration (IC50) was 10 nM.
With `Cc1ccc(-c2nc(C(N)=O)c(N)c(-c3c(C)ccc4[nH]ncc34)n2)c(Nc2ncccc2C)n1` [Compound 687] the figure was 3 nM; with `Cc1cncc(Nc2nc(C)ccc2-c2nc(C(N)=O)c(N)c(-c3c(C)ccc4[nH]ncc34)n2)n1` [Compound 688], 180 nM; with `Cc1ccc(-c2nc(C(N)=O)c(N)c(-c3c(C)ccc4[nH]ncc34)n2)c(Nc2nc(C)cnc2C)n1` [Compound 689], 6 nM.
On to `Cc1ccc2[nH]ncc2c1-c1nc(-c2cc(F)cnc2N[C@H]2C[C@H](O)C2)nc(C(N)=O)c1N` [Compound 690], for which the IC50 was 16 nM.
In the case of `Cc1ccc2[nH]ncc2c1-c1nc(-c2cc(F)cnc2NCC2(O)CCC2)nc(C(N)=O)c1N` [Compound 691], the IC50 is 228 nM.
As for `Cc1ccc2[nH]ncc2c1-c1nc(-c2cc(F)cnc2NCC2(O)CC2)nc(C(N)=O)c1N` [Compound 692], the figure is 195 nM; as for `Cc1ccc2[nH]ncc2c1-c1nc(-c2ccc(F)cc2Nc2cncnc2C(=N)N)nc(C(N)=O)c1N` [Compound 694], 423 nM; as for `Cc1ccc2[nH]ncc2c1-c1nc(-c2ccc(F)cc2Nc2cncnc2C)nc(C(N)=O)c1N` [Compound 695], 41 nM.
On to `COc1cncc(Nc2cc(F)ccc2-c2nc(C(N)=O)c(N)c(-c3c(C)ccc4[nH]ncc34)n2)n1` [Compound 696], for which the IC50 amounted to 69 nM.
As for `Cc1ccc(F)c(Nc2ncccc2-c2nc(C(N)=O)c(N)c(-c3c(C)ccc4[nH]ncc34)n2)n1` [Compound 697], the figure is 2 nM; as for `Cc1ccc2[nH]ncc2c1-c1nc(-c2ccc(F)cc2Nc2cc(C3(C#N)CC3)ccn2)nc(C(N)=O)c1N` [Compound 698], 1610 nM.
With `Cc1ccc2[nH]ncc2c1-c1nc(-c2ccc(F)cc2Nc2cnccc2C#N)nc(C(N)=O)c1N` [Compound 699] the figure was 48 nM; with `Cc1ccc(O)c(C)c1-c1nc(-c2cc(F)cnc2NCC(F)F)nc(C(N)=O)c1N` [Compound 700, 5-amino-2-(2-((2,2-difluoroethyl)amino)-5-fluoropyridin-3-yl)-6-(3-hydroxy-2,6-dimethylphenyl)pyrimidine-4-carboxamide], 9 nM.
As for `Cc1ccc2[nH]ncc2c1-c1nc(-c2ccc(F)cc2Nc2nccnc2C#N)nc(C(N)=O)c1N` [Compound 701], the figure is 25 nM.
For `Cc1ccc2[nH]ncc2c1-c1nc(-c2cc(F)cnc2NCC(C)(C)C#N)nc(C(N)=O)c1N` [Compound 702], the IC50 was 14 nM.
With `Cc1ccc2[nH]ncc2c1-c1nc(-c2cccnc2NCCN2CCOCC2)nc(C(N)=O)c1N` [Compound 703] the figure was 680 nM; with `Cc1ccc2[nH]ncc2c1-c1nc(-c2cc(F)cnc2N[C@H]2C[C@@H](O)C2)nc(C(N)=O)c1N` [Compound 704], 17 nM; with `Cc1ccc2[nH]ncc2c1-c1nc(-c2cc(F)cnc2NCC2(C#N)CC2)nc(C(N)=O)c1N` [Compound 705], 33 nM.
As for `Cc1ccc2[nH]ncc2c1-c1nc(-c2ccc(F)cc2Nc2cncc(C#N)n2)nc(C(N)=O)c1N` [Compound 706], the IC50 was 56 nM.
With `Cc1ccc(C)c(Nc2ncccc2-c2nc(C(N)=O)c(N)c(-c3c(C)ccc4[nH]ncc34)n2)n1` [Compound 707] the figure was 38 nM; with `COc1ccc(-c2nc(C(N)=O)c(N)c(-c3c(C)ccc4[nH]ncc34)n2)c(Nc2ncccc2C)n1` [Compound 709], 18 nM; with `Cc1ccc2[nH]ncc2c1-c1nc(-c2cc(F)cnc2N[C@@H](C)C2CC2)nc(C(N)=O)c1N` [Compound 710], 19 nM.
As for `Cc1ccc2[nH]ncc2c1-c1nc(-c2cc(F)cnc2N[C@H]2CCOC2)nc(C(N)=O)c1N` [Compound 711], the figure is 14 nM; as for `Cc1ccc2[nH]ncc2c1-c1nc(-c2cc(F)cnc2NC2COC2)nc(C(N)=O)c1N` [Compound 712], 66 nM.
`Cc1ccc2[nH]ncc2c1-c1nc(-c2cc(F)cnc2NC2CC3(COC3)C2)nc(C(N)=O)c1N` [Compound 713]: the 50% inhibitory concentration (IC50) is more than 10000 nM.
Take `Cc1ncc(F)c(Nc2cc(F)ccc2-c2nc(C(N)=O)c(N)c(-c3c(C)ccc4[nH]ncc34)n2)n1` [Compound 714]: the IC50 was determined as 13 nM.
As for `Cc1ccc(F)c(Nc2ncc(F)cc2-c2nc(C(N)=O)c(N)c(-c3c(C)ccc(O)c3C)n2)n1` [Compound 715, 5-amino-2-[5-fluoro-2-[(3-fluoro-6-methyl-2-pyridyl)amino]-3-pyridyl]-6-(3-hydroxy-2,6-dimethyl-phenyl)pyrimidine-4-carboxamide], the figure is 9 nM.
As for `Cc1ccc(Cl)c(Nc2ncccc2-c2nc(C(N)=O)c(N)c(-c3c(C)ccc4[nH]ncc34)n2)n1` [Compound 716], the concentration for half-maximal inhibition (IC50) was determined as 13 nM.
As for `Cc1ccc2[nH]ncc2c1-c1nc(-c2cccnc2Nc2cncnc2C)nc(C(N)=O)c1N` [Compound 717], the figure is 216 nM; as for `Cc1cnc(C)c(Nc2ncccc2-c2nc(C(N)=O)c(N)c(-c3c(C)ccc4[nH]ncc34)n2)n1` [Compound 718], 39 nM.
As for `Cc1cnc(C)c(Nc2cc(F)ccc2-c2nc(C(N)=O)c(N)c(-c3c(C)ccc4[nH]ncc34)n2)n1` [Compound 719], the figure is 55 nM.
With `Cc1ccc2[nH]ncc2c1-c1nc(-c2cccnc2Nc2ncccc2C(F)F)nc(C(N)=O)c1N` [Compound 720] the figure was 7 nM; with `Cc1ccc(-c2nc(C(N)=O)c(N)c(-c3c(C)ccc4[nH]ncc34)n2)c(Nc2nccnc2Cl)n1` [Compound 721], 4 nM; with `Cc1ccc2[nH]ncc2c1-c1nc(-c2cc(F)cnc2N[C@H]2CC[C@](C)(O)CC2)nc(C(N)=O)c1N` [Compound 722], 232 nM.
Consider `Cc1ccc2[nH]ncc2c1-c1nc(-c2cc(F)cnc2N[C@H]2CC[C@@](C)(O)CC2)nc(C(N)=O)c1N` [Compound 723], for which the IC50 turned out to be 22 nM.
With `Cc1ccc(F)nc1Nc1ncccc1-c1nc(C(N)=O)c(N)c(-c2c(C)ccc3[nH]ncc23)n1` [Compound 724], the 50% inhibitory concentration (IC50) is 13 nM.
With `Cc1ccc(-c2nc(C(N)=O)c(N)c(-c3c(C)ccc4[nH]ncc34)n2)c(Nc2cncc(Cl)n2)n1` [Compound 725] the figure was 474 nM; with `Cc1ccc2[nH]ncc2c1-c1nc(-c2cccnc2Nc2ncccn2)nc(C(N)=O)c1N` [Compound 726], 120 nM.
As for `Cc1ccc(O)c(C)c1-c1nc(-c2cccnc2Nc2nccnc2C)nc(C(N)=O)c1N` [Compound 727, 5-amino-6-(3-hydroxy-2,6-dimethylphenyl)-2-(2-((3-methylpyrazin-2-yl)amino)pyridin-3-yl)pyrimidine-4-carboxamide], the figure is 3 nM.

Broadly, the IC50 is the concentration needed to halve the response being measured.
